The melting point is the temperature, or range, at which the solid turns liquid.

For the compound `COc1sc(-c2cnn(-c3c(C(F)(F)F)c(C(F)(F)C(F)(F)F)nn3C)c2)cc1C(=O)NC1CC1` [Compound 56], the melting point lay within 152 to 153 °C.
As for `Cn1nc(C(F)(F)C(F)(F)F)c(C(F)(F)F)c1-n1cc(-c2cc(C(=O)NC3CC3)c(Br)s2)cn1` [Compound 57], the figure is 192 to 193 °C; as for `Cn1nc(C(F)(F)C(F)(F)F)c(C(F)(F)F)c1-n1cc(-c2cc(C(=O)NC3CC3)c(C#N)s2)cn1` [Compound 59], 171 to 172 °C.
As for `Cn1nc(C(F)(F)C(F)(F)F)c(C(F)(F)F)c1-n1cc(-c2cc(C(=O)NC3(C#N)CC3)c(Br)s2)cn1` [Compound 61], the figure is 184 to 185 °C; as for `Cn1nc(C(F)(F)C(F)(F)F)c(C(F)(F)F)c1-n1cc(-n2cnc(C(=O)NC3(C#N)CC3)c2)cn1` [Compound 62], 195 to 197 °C.
For `Cn1nc(C(F)(F)C(F)(F)F)c(C(F)(F)F)c1-n1cc(-c2cc(C(=O)NC3CC3)sn2)cn1` [Compound 63], the melting point lay within 146 to 148 °C.
As to `Cn1nc(C(F)(F)C(F)(F)F)c(C(F)(F)F)c1-n1cc(-c2cnc(C(=O)NC3(C#N)CC3)s2)cn1` [Compound 64], the melting point was in the range of 158 to 159 °C.
For `Cn1nc(C(F)(F)C(F)(F)F)c(C(F)(F)F)c1-n1cc(-c2cnc(C(=O)NC3CC3)s2)cn1` [Compound 65], the melting point lay within 132 to 133 °C.
As for `Cn1nc(C(F)(F)C(F)(F)F)c(C(F)(F)F)c1-n1cc(-c2cc(C(=O)NC3CC3)no2)cn1` [Compound 66], the figure is 181 to 183 °C.
In turn, `Cn1nc(C(F)(F)C(F)(F)F)c(C(F)(F)F)c1-n1cc(-n2cc(C(=O)NC3(C#N)CC3)nn2)cn1` [Compound 67] displayed a melting point of over 250 °C.
As for `Cn1nc(C(F)(F)C(F)(F)F)c(C(F)(F)F)c1-n1cc(-n2cc(C(=O)NC3CC3)nn2)cn1` [Compound 68], the figure is 242 to 244 °C.

Values taken from patent US10548317B2, “Pesticidally active pyrazole derivatives” (SYNGENTA PARTICIPATIONS AG, priority 2015, dated 2020).
